# EPA's ToxRefDB 2
# Assays:
# rat [1] = conditions: Other (NonGuideline or Guideline Not Listed); sprague dawley; Oral; Gavage/Intubation; dose end: 7 day; group: cannot be grouped; systemic / clinical chemistry / alanine aminotransferase (alt/sgpt) / alanine aminotransferase (alt/sgpt) + systemic / clinical chemistry / …
# rabbit [2] = conditions: Prenatal developmental toxicity study; new zealand white; Oral; Gavage/Intubation; dose end: 19 GD; group: maternal; reproductive / reproductive performance / postimplantation loss / postimplantation loss + reproductive / reproductive performance / …
# rat [3] = conditions: Multigenerational reproductive toxicity study, other, Oral, Feed, dose end: 2 generation
# rat [4] = conditions: Subchronic oral toxicity in rodents, sprague dawley, Feed, dose end: 13 week, group: systemic
# rat [5] = conditions: Prenatal developmental toxicity study, other, Oral, Gavage/Intubation, dose end: 15 GD
# dog = conditions: Chronic toxicity; beagle; Oral; Capsule; dose end: 52 week; group: systemic; systemic / clinical chemistry / cholesterol / cholesterol + systemic / hematology / lymphocyte / lymphocyte + systemic / in life observation…
# rat [6] = conditions: Combined chronic toxicity/carcinogenicity; sprague dawley; Oral; Feed; dose end: 104 week; group: systemic; systemic / in life observation / body weight / body weight
# mouse = conditions: Carcinogenicity; cd1; Oral; Feed; dose end: 78 week; group: systemic; systemic / in life observation / body weight / body weight gain + systemic / pathology microscopic / epididymis / concretion + systemic / …
# rat [7] = conditions: Prenatal developmental toxicity study; sprague dawley; Oral; Gavage/Intubation; dose end: 17 GD; group: maternal; systemic / in life observation / body weight / body weight + systemic / in life observation / body weight / body weight gain
# rat [8] = conditions: Prenatal developmental toxicity study; sprague dawley; Oral; Gavage/Intubation; dose end: 17 GD; group: maternal; systemic / in life observation / body weight / body weight + systemic / in life observation / body weight / body weight gain + systemic / in…
# rabbit [9] = conditions: Prenatal developmental toxicity study, new zealand white, Oral, Gavage/Intubation, dose end: 18 GD
# [10] = group: offspring, systemic / in life observation / body weight / offspring (pup) weight
# [11] = group: parental, systemic / in life observation / body weight / body weight gain + systemic / in life observation / food consumption / food consumption
# [12] = systemic / clinical chemistry / alanine aminotransferase (alt/sgpt) / alanine aminotransferase (alt/sgpt) + systemic / clinical chemistry / …
# [13] = group: developmental, developmental / developmental malformation / bone / bipartite ossification + developmental / developmental malformation / bone / cervical + …
# [14] = group: maternal, reproductive / reproductive performance / postimplantation loss / postimplantation loss + reproductive / reproductive performance / …
# [15] = group: developmental, systemic / in life observation / body weight / fetal weight
# [16] = group: maternal, systemic / in life observation / clinical signs / defecation + systemic / in life observation / mortality / mortality
# [17] = group: maternal, systemic / in life observation / clinical signs / defecation + systemic / in life observation / mortality / mortality + systemic / in life …
structure (smiles),measurement,setting,value
Fc1ccccc1[C@@H](F)COC1CCC(Nc2ncnc3[nH]ncc23)CC1 (stereo partly specified) [MK-968],LEL,rat [1],300 mg/kg/day
same,LOAEL,rat [1],> 750 mg/kg/day
same,NEL,rat [1],10 mg/kg/day
same,NOAEL,rat [1],≥ 750 mg/kg/day
COC(=O)c1c(Cl)nn(C)c1S(=O)(=O)NC(=O)Nc1nc(OC)cc(OC)n1 [Halosulfuron-methyl],LEL,rabbit [2],150 mg/kg/day
same,LOAEL,rabbit [2],150 mg/kg/day
same,NEL,rabbit [2],50 mg/kg/day
same,NOAEL,rabbit [2],50 mg/kg/day
same,LEL,rat [3]; [10],61 mg/kg/day
same,LOAEL,rat [3]; [10],> 274 mg/kg/day
same,NEL,rat [3]; [10],7.4 mg/kg/day
same,NOAEL,rat [3]; [10],≥ 274 mg/kg/day
same,LEL,"rat [3]; group: parental, systemic / in life observation / body weight / body weight",69.7 mg/kg/day
same,NEL,"rat [3]; group: parental, systemic / in life observation / body weight / body weight + systemic / in life observation / food consumption / food consumption",8.9 mg/kg/day
same,LOAEL,rat [3]; [11],223 mg/kg/day
same,NOAEL,rat [3]; [11],50.4 mg/kg/day
same,LOAEL,rat [4]; [12],497 mg/kg/day
same,NEL,rat [4]; [12],28.8 mg/kg/day
same,NOAEL,rat [4]; [12],116 mg/kg/day
same,LEL,rat [4]; systemic / pathology microscopic / kidney / hemosiderosis,116 mg/kg/day
same,LEL,rat [5]; [13],750 mg/kg/day
same,LOAEL,rat [5]; [13],750 mg/kg/day
same,NEL,rat [5]; [13],250 mg/kg/day
same,NOAEL,rat [5]; [13],250 mg/kg/day
same,LEL,rat [5]; [14],750 mg/kg/day
same,LOAEL,rat [5]; [14],750 mg/kg/day
same,NEL,rat [5]; [14],250 mg/kg/day
same,NOAEL,rat [5]; [14],250 mg/kg/day
same,LEL,dog,10 mg/kg/day
same,LOAEL,dog,10 mg/kg/day
same,NEL,dog,1 mg/kg/day
same,NOAEL,dog,1 mg/kg/day
same,LEL,rat [6],139 mg/kg/day
same,LOAEL,rat [6],139 mg/kg/day
same,NEL,rat [6],56.3 mg/kg/day
same,NOAEL,rat [6],56.3 mg/kg/day
same,LEL,mouse,972 mg/kg/day
same,LOAEL,mouse,972 mg/kg/day
same,NEL,mouse,410 mg/kg/day
same,NOAEL,mouse,410 mg/kg/day
NCc1cccc(C2CCN(C(=O)c3ccc(C#Cc4ccccc4F)o3)CC2)c1 [AVE5638],LEL,rat [7],40 mg/kg/day
same,LOAEL,rat [7],40 mg/kg/day
same,NEL,rat [7],5 mg/kg/day
same,NOAEL,rat [7],5 mg/kg/day
same,LEL,rat [8],40 mg/kg/day
same,LOAEL,rat [8],40 mg/kg/day
same,NEL,rat [8],5 mg/kg/day
same,NOAEL,rat [8],5 mg/kg/day
same,LEL,rabbit [9]; [15],225 mg/kg/day
same,LOAEL,rabbit [9]; [15],225 mg/kg/day
same,NEL,rabbit [9]; [15],100 mg/kg/day
same,NOAEL,rabbit [9]; [15],100 mg/kg/day
same,LEL,rabbit [9]; [16],100 mg/kg/day
same,LOAEL,rabbit [9]; [16],100 mg/kg/day
same,NEL,rabbit [9]; [17],25 mg/kg/day
same,NOAEL,rabbit [9]; [17],25 mg/kg/day
